Measured values as given in ChEMBL document CHEMBL5032508, “Synthesis of Fluorescent Probes Targeting Tumor-Suppressor Protein FHIT and Identification of Apoptosis-Inducing FHIT Inhibitors” (J Med Chem, 2021).
Activity calls are given as the source filed them. The calls are words filed in the database; no cut-off is given here.

Legend:
[1] = biological target: Bis(5'-adenosyl)-triphosphatase (Homo sapiens) (UniProt P49789); assay: Inhibition of recombinant human FHIT at 10 uM incubated for 1 hr by fluorescence based analysis relative to control
Sequence of Bis(5'-adenosyl)-triphosphatase (Homo sapiens) (P49789 whole entry, looked up): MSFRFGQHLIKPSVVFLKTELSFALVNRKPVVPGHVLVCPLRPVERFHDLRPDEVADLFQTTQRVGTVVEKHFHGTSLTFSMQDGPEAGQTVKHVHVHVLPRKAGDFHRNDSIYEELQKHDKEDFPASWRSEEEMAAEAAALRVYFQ

[2] = system: HCC827-Luc; assay: Induction of apoptosis in human HCC827-Luc cells assessed as increase in caspase 3/7 activity at 10 uM measured after 24 hrs by confocal fluorescence microscopic analysis; format: functional, cell-based
[3] = system: NCI-H460-Luc; assay: Induction of apoptosis in human NCI-H460-Luc cells weakly expressing FHIT cocultured with human HCC827-Luc cells assessed as PI-positive cells at 10 uM incubated for 12 hrs by calcein AM/Hoechst/PI staining based confocal fluorescence microscopic analysis; format: functional, cell-based
[4] = system: HCC827-Luc; assay: Induction of caspase-mediated apoptosis in human HCC827-Luc cells assessed as reduction in cell viability pretreated with caspase inhibitor Z-VAD-fmk for 1 hr followed by compound addition and measured after 72 hrs by CCK-8 assay; format: functional, cell-based
[5] = system: HCC827-Luc; assay: Induction of apoptosis in human HCC827-Luc cells expressing FHIT cocultured with human NCI-H460-Luc cells assessed as PI-positive cells at 10 uM incubated for 12 hrs by calcein AM/Hoechst/PI staining based confocal fluorescence microscopic analysis; format: functional, cell-based
[6] = system: NCI-H460-Luc; assay: Induction of apoptosis in human NCI-H460-Luc cells weakly expressing FHIT assessed as reduction in cell viability measured after 24 hrs by CCK-8 assay; format: functional, cell-based
[7] = system: HCC827-Luc; assay: Induction of apoptosis in human HCC827-Luc cells expressing FHIT assessed as reduction in cell viability measured after 24 hrs by CCK-8 assay; format: functional, cell-based
[8] = biological target: Bis(5'-adenosyl)-triphosphatase (Homo sapiens) (UniProt P49789); assay: Noncompetitive inhibition of human recombinant FHIT assessed as reduction in hydrolysis of TG-CMP at 1 to 9 uM measured for 30 mins by Lineweaver-Burk plot analysis; conditions: dose 1-9 µM
[9] = biological target: Bis(5'-adenosyl)-triphosphatase (Homo sapiens) (UniProt P49789); assay: Inhibition of recombinant human FHIT assessed as reduction in AP3Aase activity at 50 uM measured after 45 mins by HPLC analysis relative to control
[10] = system: HCC827-Luc; assay: Induction of apoptosis in human HCC827-Luc cells assessed as increase in caspase 3/7 activity at 1 uM measured after 24 hrs by confocal fluorescence microscopic analysis; format: functional, cell-based
[11] = biological target: Bis(5'-adenosyl)-triphosphatase (Homo sapiens) (UniProt P49789); assay: Inhibition of recombinant human FHIT at 100 uM incubated for 1 hr by fluorescence based analysis relative to control
[12] = system: COc1ccc(-c2c3ccc(=O)cc-3oc3cc(OCOP(=O)(O)OC[C@H]4O[C@@H](n5ccc(=O)[nH]c5=O)[C@H](O)[C@@H]4O)ccc23)c(C)c1; assay: (§1) Substrate activity at human recombinant FHIT assessed as Kcat/Km by Michaelis-Menten analysis
[13] = system: COc1ccc(-c2c3ccc(=O)cc-3oc3cc(OCOP(=O)(O)OC[C@H]4O[C@@H](n5cnc6c(N)ncnc65)[C@H](O)[C@@H]4O)ccc23)c(C)c1; assay: as §1
[14] = system: COc1ccc(-c2c3ccc(=O)cc-3oc3cc(OCOP(=O)(O)OC[C@H]4O[C@@H](n5cnc6c(=O)[nH]c(N)nc65)[C@H](O)[C@@H]4O)ccc23)c(C)c1; assay: as §1
[15] = system: COc1ccc(-c2c3ccc(=O)cc-3oc3cc(OCOP(=O)(O)OC[C@H]4O[C@@H](n5ccc(N)nc5=O)[C@H](O)[C@@H]4O)ccc23)c(C)c1; assay: as §1
[16] = system: COc1ccc(-c2c3ccc(=O)cc-3oc3cc(OCOP(=O)(O)OC[C@H]4O[C@@H](n5ccc(N)nc5=O)[C@H](O)[C@@H]4O)ccc23)c(C)c1; assay: Substrate activity at human recombinant FHIT assessed as Kcat by Michaelis-Menten analysis
[17] = system: COc1ccc(-c2c3ccc(=O)cc-3oc3cc(OCOP(=O)(O)OC[C@H]4O[C@@H](n5ccc(N)nc5=O)[C@H](O)[C@@H]4O)ccc23)c(C)c1; assay: Substrate activity at human recombinant FHIT assessed as Km by Michaelis-Menten analysis

Sequence of Bis(5'-adenosyl)-triphosphatase (Homo sapiens), P49789 (P49789 whole entry): as the sequence (P49789 whole entry, looked up) above

Work on `COCC(=O)N1CC[C@@H]2[C@H]1C(=O)NC[C@H](CCC(=O)OC)N2C` yielded an inhibition [1] greater than 80%.
With `Cc1c(OCC(=O)NO)ccc2c3c(c(=O)oc12)CCCC3` the Activity [2] was “Active”, the Activity [3] was “inactive” and the Activity [4] was “inactive”. For the same compound, the Activity [5] was “Active”, the Activity [6] was “Active” and the Activity [7] was “Active”. The inhibition [8] was “Active”.
For `O=C(Cn1cc([N+](=O)[O-])ccc1=O)NC(=O)NCc1ccco1`, the inhibition [9] was 59% and the inhibition [1] was greater than 80%.
Compound `NNC(=O)c1nn(-c2ccccc2)c(=O)cc1O` has an inhibition [1] greater than 80%.
For `CN[C@@H]1C[C@H]2O[C@@](C)([C@@H]1OC)n1c3ccccc3c3c4c(c5c6ccccc6n2c5c31)C(=O)NC4`, the Activity [10] was “inactive”.
In the case of `Nc1ncnc2c1ncn2[C@@H]1O[C@H](COP(=O)(O)OP(=O)(O)OP(=O)(O)OP(=O)(O)OC[C@H]2O[C@@H](n3cnc4c(N)ncnc43)[C@H](O)[C@@H]2O)[C@@H](O)[C@H]1O`, the inhibition [11] is reported as greater than 50%.
In the case of `CN1C(=O)N/C(=C/c2cccn2-c2ccc(C(=O)O)cc2)C1=O`, the inhibition [9] is reported as 51% and the inhibition [1] is reported as greater than 80%.
For `Cc1c(OCC#N)ccc2c3c(c(=O)oc12)CCCC3`, the Activity [6] was “inactive” and the Activity [7] was “inactive”.
`CCOC(=O)c1c(C)sc(N)c1C(=O)OCC` was tested, and the inhibition [1] was greater than 80%.
With `Nc1ncnc2c1ncn2[C@@H]1O[C@H](COP(=O)(O)O)[C@@H](O)[C@H]1O` the inhibition [11] was greater than 50%.
Work on `Cc1c(OCc2nn[nH]n2)ccc2c3c(c(=O)oc12)CCC(C)C3` (stereo not given) yielded an inhibition [9] of 76% and an inhibition [1] greater than 80%.
Compound `O=C(O)c1ccc(/C=N/NC(=O)c2nc(-c3ccccc3)n(-c3ccccc3)n2)cc1` has an inhibition [1] greater than 80%.
Work on `O=C(O)c1ccc2[nH]c(-c3ccnc(-c4cccnc4)c3)nc2c1` yielded an inhibition [9] of 95% and an inhibition [1] greater than 80%.
“Bis(5'-adenosyl)-triphosphatase (Homo sapiens), P49789” gave a kcat/Km [12] of 1830 M⁻¹ s⁻¹, a kcat/Km [13] of 6330 M⁻¹ s⁻¹ and a kcat/Km [14] of 967 M⁻¹ s⁻¹. The kcat/Km [15] was 9330 M⁻¹ s⁻¹, the kcat [16] was 0.35 s⁻¹ and the Km [17] was 37 µM.
In the case of `Cc1c(OCC(=O)O)ccc2c3c(c(=O)oc12)CCCC3`, the Activity [6] is reported as “inactive” and the Activity [7] is reported as “inactive”.
`Nc1ncnc2c1ncn2[C@@H]1O[C@H](COP(=O)(O)OP(=O)(O)OP(=O)(O)OC[C@H]2O[C@@H](n3cnc4c(N)ncnc43)[C@H](O)[C@@H]2O)[C@@H](O)[C@H]1O` gave an inhibition [11] greater than 50%.
For `Cc1c(OCc2nn[nH]n2)ccc2c3c(c(=O)oc12)CCCC3`, the Activity [6] was “inactive” and the Activity [7] was “inactive”.
